In patent US12059420B2 (BRISTOL-MYERS SQUIBB COMPANY, priority 2018, dated 2024):
Counter-ions that a name gives are not always drawn.

What follows are compounds tested against T1, human IDO1 (Homo sapiens, UniProt P14902) (assay: IDO inhibition assay in HEK293 cells stably expressing human IDO1 (kynurenine production, Ehrlich reagent, absorbance 490 nm)). Details: 20 hours incubation with compound, 500 nM reference standard = 100% inhibition, read-out: IDO1 HEK Human IC50.
T1 construct: expressed in transfected cells
T1 sequence (P14902 whole entry): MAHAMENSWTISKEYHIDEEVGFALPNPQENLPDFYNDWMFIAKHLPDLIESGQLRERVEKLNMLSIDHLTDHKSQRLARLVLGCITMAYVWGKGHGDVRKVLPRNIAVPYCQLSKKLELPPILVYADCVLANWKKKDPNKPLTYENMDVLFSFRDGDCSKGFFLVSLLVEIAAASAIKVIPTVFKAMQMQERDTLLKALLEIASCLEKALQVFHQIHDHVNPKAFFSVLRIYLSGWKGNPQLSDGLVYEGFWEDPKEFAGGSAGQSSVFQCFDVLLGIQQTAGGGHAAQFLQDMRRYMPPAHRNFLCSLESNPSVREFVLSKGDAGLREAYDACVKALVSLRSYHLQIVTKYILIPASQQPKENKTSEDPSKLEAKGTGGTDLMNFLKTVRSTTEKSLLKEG
Assay type: cell-based
Procedure, shortened: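 Kynurenine output of stably IDO1-transfected HEK293 cells was measured by absorbance at 490 nm after mixing supernatant with 0.2% Ehrlich reagent, following TCA stop (0.2% final, 50° C., 30 min). Cells were incubated 20 hours with compound. Inhibition was scaled between DMSO and 500 nM reference standard.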

| Compound | IC50 |
| --- | --- |
| CCCN(CC1CC1)c1nc(NC(=O)Nc2ccc(OC(F)(F)F)cc2)cc(-c2ccccc2-c2nnn[nH]2)n1 [Example 67, 1-(6-(2-(1H-tetrazol-5-yl)phenyl)-2-((cyclopropylmethyl) (propyl)amino)pyrimidin-4-yl)-3-(4-(trifluoromethoxy)phenyl)urea] | 2470 nM |
| CCCN(Cc1ccccc1)c1cc(NC(=O)Cc2csc(C)n2)cc(-c2ccccc2-c2nn[nH]n2)n1 [Example 211, N-(2-(2-(2H-tetrazol-5-yl)phenyl)-6-(benzyl(propyl)amino)pyridin-4-yl)-2-(2-methylthiazol-4-yl)acetamide] | 906 nM |
| CCCN(Cc1ccccc1)c1cc(NC(=O)Cc2ccccc2C(F)(F)F)cc(-c2ccccc2-c2nn[nH]n2)n1 [Example 205, N-(2-(2-(2H-tetrazol-5-yl)phenyl)-6-(benzyl(propyl)amino)pyridin-4-yl)-2-(2-(trifluoromethyl)phenyl)acetamide] | 80.2 nM |
| CCCN(Cc1ccccc1)c1cc(NC(=O)Cc2cccnc2)cc(-c2ccccc2-c2nn[nH]n2)n1 [Example 292] | 3360 nM |
| CC(C)CN(Cc1ccccc1)c1cc(Nc2ccc3c(c2)OCO3)cc(-c2ccccc2-c2nnn[nH]2)n1 [Example 138, 6-(2-(1H-tetrazol-5-yl)phenyl)-N4-(benzo[d][1,3]dioxol-5-yl)-N2-benzyl-N2-isobutylpyridine-2,4-diamine] | 12 nM |
| COc1cccc(Nc2cc(-c3ccccc3-c3nnn[nH]3)nc(N(Cc3ccccc3)CC(C)C)c2)c1 [Example 196, 6-(2-(1H-tetrazol-5-yl)phenyl)-N2-benzyl-N2-isobutyl-N4-(3-methoxyphenyl)pyridine-2,4-diamine] | 7 nM |
| CCN(Cc1ccccc1)c1cc(NC(=O)Cc2ccc(C#N)cc2)cc(-c2ccccc2-c2nnn[nH]2)n1 [Example 282, N-(2-(2-(1H-Tetrazol-5-yl)phenyl)-6-(benzyl(ethyl)amino)pyridin-4-yl)-2-(4-cyanophenyl)acetamide] | 1580 nM |
| CCCN(Cc1ccccc1)c1cc(NC(=O)Cc2ccc(C)nc2)cc(-c2ccccc2-c2nnn[nH]2)n1 [Example 293] | 1370 nM |
| CCCN(Cc1ccccc1)c1cc(NC(=O)Cc2ccc3ccccc3c2)cc(-c2ccccc2-c2nn[nH]n2)n1 [Example 201, N-(2-(2-(2H-tetrazol-5-yl)phenyl)-6-(benzyl(propyl)amino)pyridin-4-yl)-2-(naphthalen-2-yl)acetamide] | 34.2 nM |
| CC(C)CN(Cc1ccccc1)c1cc(Nc2ccc(Cl)cc2Cl)cc(-c2ccccc2-c2nnn[nH]2)n1 [Example 174, 6-(2-(1H-tetrazol-5-yl)phenyl)-N2-benzyl-N4-(2,4-dichlorophenyl)-N2-isobutylpyridine-2,4-diamine] | 16.5 nM |
| CC(C)CN(Cc1ccccc1)c1cc(Nc2cccc(C#N)c2)cc(-c2ccccc2-c2nnn[nH]2)n1 [Example 192, 3-((2-(2-(1H-tetrazol-5-yl)phenyl)-6-(benzyl(isobutyl)amino)pyridin-4-yl)amino)benzonitrile] | 19.8 nM |
| CCCN(Cc1ccccc1)c1cc(NC(=O)Nc2ccc(C)cc2)cc(-c2ccccc2S(N)(=O)=O)n1 [Example 27, 2-(6-(benzyl (propyl)amino)-4-(3-(p-tolyl)ureido)pyridin-2-yl) benzene sulfonamide] | 607 nM |
| Cc1ccc(CC(=O)Nc2cc(-c3ccccc3-c3nnn[nH]3)nc(N3CCCc4ccccc43)c2)cc1 [Example 68, N-(2-(2-(1H-tetrazol-5-yl)phenyl)-6-(3,4-dihydroquinolin-1(2H)-yl)pyridin-4-yl)-2-(p-tolyl)acetamide, TFA] | 324 nM |
| CC(C)CN(Cc1ccccc1)c1cc(Nc2ncccc2F)cc(-c2ccccc2-c2nnn[nH]2)n1 [Example 178, 6-(2-(1H-tetrazol-5-yl)phenyl)-N2-benzyl-N4-(3-fluoropyridin-2-yl)-N2-isobutylpyridine-2,4-diamine] | 58.4 nM |
